Results: patent publication US20020103105A1, “Use of selective dopamine D4 receptor agonists for treating sexual dysfunction” (priority 2000, published 2002)
Values joined by “and” are separate entries in the source; they are usually repeats but may differ in a detail not shown here. Equal entries are not always repeated. Where two headings read alike, the source gives them in different places.

Key:
human D4 receptor [1] = target: T1, human D4 receptor (Homo sapiens, UniProt P21917); assay: FLIPR calcium assay in HEK293 cells expressing human D4 receptor co-transfected with Gqo5 chimera; assay type: cell-based; design: expressed in transfected cells; host or cells: HEK293 cells, stably transfected, with Gqo5 chimera
T1 sequence (P21917 1-419): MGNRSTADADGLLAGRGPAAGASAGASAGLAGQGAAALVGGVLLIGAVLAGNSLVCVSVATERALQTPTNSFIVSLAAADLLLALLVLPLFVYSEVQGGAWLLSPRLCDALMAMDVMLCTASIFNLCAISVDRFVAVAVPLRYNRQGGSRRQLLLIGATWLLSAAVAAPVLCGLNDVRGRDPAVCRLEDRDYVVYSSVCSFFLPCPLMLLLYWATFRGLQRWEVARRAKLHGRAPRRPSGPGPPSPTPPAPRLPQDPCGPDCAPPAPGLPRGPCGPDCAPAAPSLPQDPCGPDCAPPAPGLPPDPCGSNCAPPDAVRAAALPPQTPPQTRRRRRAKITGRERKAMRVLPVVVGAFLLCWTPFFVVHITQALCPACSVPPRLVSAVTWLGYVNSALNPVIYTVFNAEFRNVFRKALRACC
Procedure: The FLIPR assay is a functional assay that can be conducted in HEK293 cells expressing the human D4 receptor, co-transfected with the Gqo5 protein chimera. Expression of the G-protein chimera allows for the mobilization of intracellular calcium after activation of the D4 receptor. Cells are prepared by plating the stably transfected D4-HEK293 cells into each well of 96 well plates. Cells are cultured until they reach confluence (approximately 48 hours). Media is removed from the plate and media containing the fluorescent calcium detecting dye Fluo-4 is added. Cells are incubated at room temperature for one hour. Cells are then washed three times with phosphate buffered saline and 150 μl PBS is added. Compounds to be tested are diluted in a second 96-well plate. The plate containing the cells is placed in fluorescent plate reader (FLIPR) and the reaction is begun by adding 50 μl of compound solution to all the wells simultaneously. Fluorescent signal is measured for 60 seconds sampling at 1 second intervals. The signal derived from 10 μM dopamine is used as 100% and a compound dose-response curve is normalized to determine the percent efficacy relative to dopamine. Dose response curves are analyzed to determine EC50 (nM).

dopamine D4 receptor [2] = target: T2, dopamine D4 receptor (Homo sapiens, UniProt P21917); details: cited literature; cited from earlier work
T2 sequence (P21917 1-419): T1 sequence (P21917 1-419)

dopamine D4 receptor [3] = target: T2, dopamine D4 receptor; assay: Dopamine D4 binding assay ([3H]-spiperone, membranes of transfected CHO cells, run by Cerep); design: host or cells: CHO cells (membranes); details: recombinant human D4, [3H]-spiperone 0.5 nM
Procedure: (§1) The dopamine D2 and D4 binding assays, used to determine binding affinities (Ki) illustrated in Table 1, were conducted according to standard procedures known to those in the art and are summarized herein.
(§2) Briefly, receptor binding assays at the dopamine D2 and D4 receptors were carried out in membranes from cell lines expressing the recombinant human subtypes. […] Specific binding was defined as the difference between total binding and nonspecific binding. Ki values were determined using the Cheng-Prusoff equation and are illustrated in Table 1.

[4] = system: penile erection in Wistar rats; assay: Rat penile erection model; assay type: in vivo; details: subcutaneous; for Incidence (%) of penile erections: 60 minutes observation; for facilitation of penile erections in rats (in words, with effective dose range): versus vehicle
Procedure: Wistar rats were used as a primary animal model to study penile erection in vivo. All experiments were carried out between 9:00 AM and 3:00 PM in a diffusely illuminated testing room with a red light. The rats were weighed and allowed to adapt to the testing room for 60 minutes before the beginning of experiments. Rats were placed in individual transparent cages (20×30×30 cm) after subcutaneous drug injection. The number of penile erections was recorded by direct observation for a period of 60 minutes after drug dosing.

[5] = system: emesis in male Fitch ferrets; assay: Emesis model in ferrets; assay type: in vivo; details: ferret, subcutaneous; for Incidence (%) of emesis: 90 minutes observation; for induction of emesis (in words): all doses tested
Procedure: Male Fitch ferrets (body weights 1.0-1.5 kg) were fasted overnight before experimentation. Animals were placed individually in observation cages following subcutaneous administration of drug and observed for drug-induced nausea and emesis for a period of 90 minutes following drug injection. Nausea was characterized by behaviors such as licking, gagging, backing, head burying, and intense abdominal grooming. Emesis was usually preceded by these behaviors and was characterized by rhythmic abdominal contractions which were associated with vomiting or retching movement. The number of ferrets induced to emesis was recorded and expressed as incidence (%) in Tables 5-7.

human D4 receptor [6] = target: T1, human D4 receptor; design: expressed in transfected cells; details: CHO cells, read-out: EC50 inhibition of forskolin-stimulated cAMP accumulation; cited from earlier work
dopamine D2 receptor = target: T3, dopamine D2 receptor (Homo sapiens, UniProt P14416); assay: Dopamine D2 binding assay ([3H]-spiperone, membranes of transfected A9L cells, run by Cerep); details: recombinant human D2, [3H]-spiperone 0.3 nM
T3 construct: host or cells: A9L cells (membranes)
Procedure: as §1, §2

T3 sequence (P14416 whole entry): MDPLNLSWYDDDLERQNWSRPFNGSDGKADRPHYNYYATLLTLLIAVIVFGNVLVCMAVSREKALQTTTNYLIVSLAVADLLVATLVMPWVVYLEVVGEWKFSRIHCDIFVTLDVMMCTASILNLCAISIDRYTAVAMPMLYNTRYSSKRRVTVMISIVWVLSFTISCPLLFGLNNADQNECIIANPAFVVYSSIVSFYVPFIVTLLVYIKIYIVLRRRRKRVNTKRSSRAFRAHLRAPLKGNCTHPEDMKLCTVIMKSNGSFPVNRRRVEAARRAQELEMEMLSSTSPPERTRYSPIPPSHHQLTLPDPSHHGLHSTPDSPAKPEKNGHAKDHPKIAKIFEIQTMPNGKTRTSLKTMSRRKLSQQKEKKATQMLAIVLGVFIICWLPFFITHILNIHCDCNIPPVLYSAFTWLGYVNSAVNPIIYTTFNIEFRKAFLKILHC

Question: With `Fc1ccc2[nH]c(CN3CCN(c4ccccn4)CC3)cc2c1` [5-fluoro-2-{[4-(2-pyridinyl)-1-piperazinyl]methyl}-1H-indole] as the compound, how does the EC50 (human D4 receptor [1]; D4-HEK293 cells, Gqo5) read?
Answer: The EC50 was 32 nM.

Question: What about the Emax (human D4 receptor [1]; HEK293, relative to 10 μM dopamine = 100%, read-out: Maximum Response FLIPR) of the same compound?
Answer: The Emax was 46%.

Question: What about the “agonism at D4 receptor in FLIPR assay (in words)” value (human D4 receptor [1]; Table A data) of the same compound?
Answer: The value was “agonists”.

Question: What about the Ki (dopamine D4 receptor [2]) of the same compound?
Answer: The Ki was 6 nM.

Question: What about the “selectivity for dopamine D4 receptor compared to D2 receptor (literature)” value (dopamine D4 receptor [2]) of the same compound?
Answer: The value was over 100 fold.

Question: And the Ki (dopamine D4 receptor [3])?
Answer: The Ki was 2.6 nM.

Question: What about the “Incidence (%) of penile erections” value ([4]; 0.3 μmol/kg) of the same compound?
Answer: Its value is 60%.

Question: What about the “Incidence (%) of penile erections” value ([4]; 1.0 μmol/kg) of the same compound?
Answer: Its value is 90%.

Question: And the “Incidence (%) of penile erections” value ([4]; 3.0 μmol/kg)?
Answer: Its value is 90%.

Question: What about the “facilitation of penile erections in rats (in words, with effective dose range)” value (from here on “facilitation of penile erections in rats”) [4] of the same compound?
Answer: The value was “significant facilitation of penile erections in rats for doses 1.0 μmol/kg and 3.0 μmol/kg”.

Question: What about the “Incidence (%) of emesis” value ([5]; 0.1 μmol/kg) of the same compound?
Answer: The value was 0%.

Question: And the “Incidence (%) of emesis” value ([5]; 0.3 μmol/kg)?
Answer: Its value is 0%.

Question: And the “Incidence (%) of emesis” value ([5]; 1.0 μmol/kg)?
Answer: Its value is 0%.

Question: And the “Incidence (%) of emesis” value ([5]; 3.0 μmol/kg)?
Answer: The value was 0%.

Question: What about the “induction of emesis (in words)” value [5] of the same compound?
Answer: The value was “did not induce emesis at any dose”.

Question: What about the EC50 (human D4 receptor [6]) of the same compound?
Answer: The EC50 was 5.8 nM.

Question: And the Ki (dopamine D2 receptor)?
Answer: Its Ki is over 1000 nM.

Question: Which “Incidence (%) of penile erections” value ([4]; 0.003 μmol/kg) does the source give for `CN1CCc2cccc3c2C1Cc1ccc(O)c(O)c1-3` (stereo not shown) [Apomorphine, 5,6,6a,7-tetrahydro-6-methyl-4H-dibenzo[de,g]quinoline-10,11-diol] here?
Answer: The value was 28%.

Question: What about the “Incidence (%) of penile erections” value ([4]; 0.01 μmol/kg) of the same compound?
Answer: Its value is 56%.

Question: And the “Incidence (%) of penile erections” value ([4]; 0.03 μmol/kg)?
Answer: Its value is 69%.

Question: And the “Incidence (%) of penile erections” value ([4]; 0.1 μmol/kg)?
Answer: Its value is 86% and 90% and 92%.

Question: And the “Incidence (%) of penile erections” value ([4]; 0.1 μmol/kg, listed as apomorphine)?
Answer: Its value is 86% and 90%.

Question: And the “Incidence (%) of penile erections” value ([4]; 0.3 μmol/kg)?
Answer: The value was 66%.

Question: What about the “Incidence (%) of penile erections” value ([4]; 1.0 μmol/kg) of the same compound?
Answer: Its value is 25%.

Question: What about the “facilitation of penile erections in rats” value [4] of the same compound?
Answer: The value was “significant facilitation of penile erections in rats for doses 0.01 μmol/kg to 0.3 μmol/kg”.

Question: And the “Incidence (%) of emesis” value ([5]; 0.1 μmol/kg)?
Answer: The value was 32%.

Question: And the “Incidence (%) of emesis” value ([5]; 0.3 μmol/kg)?
Answer: The value was 83% and 82%.

Question: And the “Incidence (%) of emesis” value ([5]; 0.3 μmol/kg, listed as apomorphine)?
Answer: Its value is 83%.

Question: And the “Incidence (%) of emesis” value ([5]; 1.0 μmol/kg)?
Answer: Its value is 48%.

Question: And the “Incidence (%) of emesis” value ([5]; 3.0 μmol/kg)?
Answer: Its value is 32%.

Question: And the “Incidence (%) of emesis” value ([5]; 10.0 μmol/kg)?
Answer: Its value is 32%.

Question: And the “induction of emesis (in words)” value [5]?
Answer: Its value is “induced emesis at all doses”.

Question: Which “Incidence (%) of penile erections” value ([4]; 0.03 μmol/kg) does the source give for `Cc1cccc(C(=O)NCN2CCN(c3ccccc3C#N)CC2)c1` [N-{[4-(2-cyanophenyl)-1-piperazinyl]methyl}-3-methylbenzamide] here?
Answer: Its value is 42%.

Question: What about the “Incidence (%) of penile erections” value ([4]; 0.1 μmol/kg) of the same compound?
Answer: Its value is 71%.

Question: And the “Incidence (%) of penile erections” value ([4]; 0.3 μmol/kg)?
Answer: The value was 79%.

Question: And the “Incidence (%) of penile erections” value ([4]; 1.0 μmol/kg)?
Answer: The value was 68%.

Question: And the “facilitation of penile erections in rats” value [4]?
Answer: Its value is “significant facilitation of penile erections in rats for doses 0.1 μmol/kg to 1.0 μmol/kg”.

Question: And the “Incidence (%) of emesis” value ([5]; 0.1 μmol/kg)?
Answer: The value was 0%.

Question: And the “Incidence (%) of emesis” value ([5]; 0.3 μmol/kg)?
Answer: The value was 0%.

Question: And the “Incidence (%) of emesis” value ([5]; 1.0 μmol/kg)?
Answer: The value was 0%.

Question: What about the “Incidence (%) of emesis” value ([5]; 3.0 μmol/kg) of the same compound?
Answer: Its value is 0%.

Question: What about the “induction of emesis (in words)” value [5] of the same compound?
Answer: The value was “did not induce emesis at any dose”.

Question: What about the Ki (dopamine D2 receptor) of the same compound?
Answer: The Ki was over 1000 nM.
